Source: PubChem BioAssay AID2202554 (NIEHS Division of Translational Toxicology (DTT))
Records with an inconclusive call do not appear. Calls of active or inactive are those of the source. The rule behind the calls is not given here.

system: S. typhimurium/E. coli reverse mutation, colony counts; assay: Bacterial reverse mutation test (aka Ames test) summary data
Procedure, shortened: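 S. typhimurium his⁻ strains (TA97–TA1538) and E. coli WP2 uvrA pKM101 trp⁻, dosed over a range with or without rat, hamster or mouse liver S9. Preincubated 20 min at 37° C (or plate incorporation), plated in agar, incubated usually two days. Revertant colonies counted against negative controls.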

SMILES | outcome
[CH3][Sn]([Cl])([Cl])[Cl] | inactive; negative
Nc1ccc(Nc2ccccc2)cc1 | inactive; negative
CC(=O)Nc1ccc(N)cc1 | active; positive
CCCCCCCCCCCOC(=O)c1ccccc1C(=O)OCCCCCCCCCCC | inactive; negative
Oc1ccc(Cl)cc1Cc1cc(Cl)ccc1O | active; positive
O=C1N(CO)C(O)C(O)N1CO (stereo not given) | active; positive
CCCN(CCC)C(=O)CN | active; positive
CCNc1ccc([N+](=O)[O-])cc1C | active; positive
Cc1ccccc1O | inactive; negative
Cc1ccc([N+](=O)[O-])cc1C | active; positive
Cc1cc(-c2ccc(N=Nc3cc(S(=O)(=O)O)c4ccccc4c3N)c(C)c2)ccc1N=Nc1cc(S(=O)(=O)O)c2ccccc2c1N | inactive; negative
O=S(=O)(O)c1ccccc1 | inactive; negative
Nc1cc(Cl)cc(C(=O)O)c1Cl | active; positive
COCCOC(=O)c1ccccc1C(=O)OCCOC | active; positive
C1CCCNCC1 | inactive; negative
CC(N)CN (stereo not given) | inactive; negative
CC(=O)NBr | inactive; negative
N#CC(O)c1ccccc1 (stereo not given) | inactive; negative
CCOC(C)(C)C | inactive; negative
C=CCN(CC=C)CC=C | inactive; negative
C[C@]12CCC(=O)C=C1CC[C@@H]1[C@@H]2CC[C@]2(C)C(=O)CC[C@@H]12 | inactive; negative
Cc1ccccc1N | active; positive
CN(C)N=O | active; positive
C1OCOCO1 | inactive; negative
CC12CCC(C1)C(C)(C)C2=O (stereo not given) | inactive; negative
[CH3][Sn]([CH3])([F])[F] | inactive; negative

SMILES | outcome
O=c1cc(-c2ccccc2)oc2ccc3ccccc3c12 | inactive; negative
CC(C)(C)OOC(=O)c1ccccc1 | active; positive
CCOCCOC(C)=O | active; positive
CCCCOC(=O)c1ccccc1C(=O)OCCCC | inactive; negative
C[Si](C)(C)Cl | active; weakly positive
Clc1ccc(C(c2ccc(Cl)cc2)C(Cl)Cl)cc1 | inactive; negative
O=NN1CCCCC1 | active; positive
Clc1cccc2ccccc12 | active; weakly positive
Cc1cccc(O)c1 | inactive; negative
NCCO | inactive; negative
C=CC(=O)OCCOCCOCCOCCOC(=O)C=C | inactive; negative
C[Si]12OCCN(CCO1)CCO2 | inactive; negative
Nc1ccc(Br)cc1 | inactive; negative
Oc1cc(Cl)c(Cl)cc1Cl | inactive; negative
CCCCCCC=O | inactive; negative
[CH3][Sn]([CH3])([Cl])[Cl] | inactive; negative
CBr | active; positive
CCc1ccccc1N | inactive; negative
O=[N+]([O-])c1ccc2c3c(cccc13)CC2 | active; positive
C=CC(=O)OCCN(C)C | inactive; negative
C1COCCO1 | inactive; negative
COc1cc(-c2ccc(N=Nc3ccc4c(S(=O)(=O)O)cc(S(=O)(=O)O)c(N)c4c3O)c(OC)c2)ccc1N=Nc1ccc2c(S(=O)(=O)O)cc(S(=O)(=O)O)c(N)c2c1O | active; positive
CC(N)=O | inactive; negative
CC(CO)[N+](=O)[O-] (stereo not given) | inactive; negative
[Cd+2].[Cl-].[Cl-] | inactive; negative
CCCCCON=O | active; positive

SMILES | outcome
Clc1ccc(Cl)c(Cl)c1 | inactive; negative
Cc1ccc(O)c(N)c1 | active; positive
CC(=O)Nc1ccc(C(=O)CCl)cc1 | active; positive
O=C(O)C(F)(F)C(F)(F)C(F)(F)C(F)(F)C(F)(F)C(F)(F)C(F)(F)C(F)(F)C(F)(F)F | inactive; negative
CCC[N+](=O)[O-] | inactive; negative
Nc1nc(N)nc(N)n1 | inactive; negative
COc1ccc(CN(CCN(C)C)c2ncccn2)cc1 | inactive; negative
Cc1cccc(C#N)c1 | inactive; negative
c1ccncc1 | inactive; negative
ClC(Cl)c1ccccc1 | active; positive
c1ccc2c(c1)Nc1ccccc1S2 | inactive; negative
Nc1cccc2c(=O)[nH][nH]c(=O)c12 | inactive; negative
C[C@]12CC[C@@H]3c4ccc(O)cc4CC[C@H]3[C@@H]1CC[C@@H]2O | inactive; negative
CN(C)CCN(Cc1ccsc1)c1ccccn1 | inactive; negative
Nc1ccccc1[N+](=O)[O-] | inactive; negative
COc1cc(-c2ccc(N=Nc3cc(S(=O)(=O)O)c4ccccc4c3O)c(OC)c2)ccc1N=Nc1cc(S(=O)(=O)O)c2ccccc2c1O | inactive; negative
Cc1cc(C(=O)O)ccc1[N+](=O)[O-] | active; positive
CCCCC(CC)COC(=O)c1cccc(C(=O)OCC(CC)CCCC)c1 (stereo not given) | inactive; negative
Cc1ccc(O)cc1 | inactive; negative
CCOP(=S)(OCC)Oc1nc(Cl)c(Cl)cc1Cl | inactive; negative
O=[N+]([O-])c1ccc(Nc2ccc(Nc3ccccc3)c(S(=O)(=O)O)c2)c([N+](=O)[O-])c1 | active; positive
C=CCc1ccc2c(c1)OCO2 | inactive; negative
CCCCOCC1CO1 (stereo not given) | active; positive
CC(O)COc1ccccc1 (stereo not given) | inactive; negative
CC(C)OC(=O)Cc1ccccc1 | inactive; negative
CC(O)CN(C)C (stereo not given) | inactive; negative

SMILES | outcome
CN1CCC(CN2c3ccccc3Sc3ccccc32)C1 (stereo not given) | inactive; negative
CCCNC(C)C(=O)Nc1ccccc1C (stereo not given) | inactive; negative
O=C1c2cccc(O)c2C(=O)c2c(O)cccc21 | active; weakly positive
Oc1c(Cl)cccc1Cl | inactive; negative
CCCCCCCCc1ccc(Nc2ccc(CCCCCCCC)cc2)cc1 | inactive; negative
CCOP(=O)(OCC)OCC | inactive; negative
COc1cc(-c2ccc(N=Nc3c(S(=O)(=O)O)cc4cc(S(=O)(=O)O)cc(N)c4c3O)c(OC)c2)ccc1N=Nc1c(S(=O)(=O)O)cc2cc(S(=O)(=O)O)cc(N)c2c1O | inactive; negative
NC(=O)NNC(N)=O | inactive; negative
O=C(NCO)NCO | active; positive
C=CCc1ccc(OC)cc1 | inactive; negative
Cc1ccc(Nc2ccc(O)c3c2C(=O)c2ccccc2C3=O)cc1 | inactive; negative
CCCCc1ccc(N=Cc2ccc(OC)cc2)cc1 | active; positive
CCCCCCCC/C=C\CCCCCCCC(=O)N(CCO)CCO | inactive; negative
C=C(C)C1CC=C(C)C(OC(C)=O)C1 (stereo not given) | inactive; negative
Cc1ccc(N)cc1N | active; positive
Clc1cc(Cl)c(Cl)c(Cl)c1Cl | inactive; negative
CCCCOCCOCCOCc1cc2c(cc1CCC)OCO2 | inactive; negative
CCCCOC(=O)COc1ccc(Cl)cc1Cl | inactive; negative
COc1cc([N+](=O)[O-])ccc1N=NC(C(C)=O)C(=O)Nc1ccccc1OC (stereo not given) | inactive; negative
Nc1cc(S(=O)(=O)O)ccc1O | inactive; negative
S=C1NCCN1 | active; weakly positive
CCCCCCCC(=O)O | inactive; negative
Oc1ccc(Cl)c(Cl)c1Cl | inactive; negative
Cc1ccc(N=Nc2c(O)c(S(=O)(=O)O)cc3ccc(S(=O)(=O)O)cc23)c(C)c1 | active; weakly positive
Cc1ccc(N)cc1Cl | active; weakly positive
CCC[CH2][Sn]([Cl])([Cl])[Cl] | inactive; negative

SMILES | outcome
CCOCCOCCO | inactive; negative
COP(=O)(OC)OC | active; positive
CC(=O)c1c(=O)cc(C)oc1=O | inactive; negative
CNC(=S)N(C)C | inactive; negative
Cc1cc2nc(N)sc2cc1C | active; positive
OCC(Cl)Cl | active; weakly positive
CCC(C)(C)C | inactive; negative
Nc1cc(Cl)cc(S(=O)(=O)O)c1O | inactive; negative
Nc1cc([N+](=O)[O-])cc(S(=O)(=O)O)c1O | inactive; negative
CC(O)C#N (stereo not given) | active; weakly positive
Cc1cccc(O)c1C | inactive; negative
O.O=C([O-])c1ccccn1.O=C([O-])c1ccccn1.O=C([O-])c1ccccn1.[Cr+3] | inactive; negative
CCc1cc(C(N)=S)ccn1 | inactive; negative
c1ccc2c(c1)-c1cccc3c1c-2cc1ccccc13 | active; positive
BrCC(Br)C1CCC(Br)C(Br)C1 (stereo not given) | inactive; negative
ClSC(Cl)(Cl)Cl | active; positive
FC(Cl)(Cl)Cl | inactive; negative
CC(=O)OC(C(=O)c1ccccc1)c1ccccc1 (stereo not given) | inactive; negative
N#CCCCCC#N | inactive; negative
NC(=O)c1ccccc1 | inactive; negative
N[C@@H](Cc1c[nH]c2ccc(O)cc12)C(=O)O | inactive; negative
C1=CCCC=CCC1.C1=CCCC=CCC1.[Ni] | active; positive
NCCS(=O)(=O)O | inactive; negative
CC(C)CCC[C@@H](C)[C@H]1CC[C@H]2[C@@H]3CC=C4C[C@@H](OC(=O)Cc5ccc(N(CCCl)CCCl)cc5)CC[C@]4(C)[C@H]3CC[C@]12C | inactive; negative
COC(F)(F)C(Cl)Cl | inactive; negative
Nc1nc2ccccc2[nH]1 | inactive; negative
